Results published in patent US4346082A, “Method of employing therapeutic composition comprising ammonium or substituted ammonium compounds for treatment of alcoholism” (The Vinoxen Company, priority 1981, dated 1982).
Read-outs that look alike come from different tables or passages of the source.

How the values were obtained:
[1] = pH of 5 weight percent aqueous salt solution; assay type: physicochemical; conditions: 5 g salt per 100 g aqueous solution, 25° C
Procedure: For each salt, 5.000 grams of reagent grade material was weighed and added to 95.00 grams of water. […] The instrument was allowed to equilibrate for three minutes between each sample, and the electrodes were rinsed with carbonate-free deionized water. Manual temperature control was set at 25° C.

rats [2] = experiment: Acute, subacute and chronic toxicity in rats, gastric catheter
effects of alcohol [3] = experiment: Efficacy in altering the effects of alcohol administered to mice; assay type: in vivo; conditions: for comparative effect on mice of ammonium thiosulfate and ammonium sulfate: series of tests in mice
Procedure: Tests of some of the compounds encompassed within the scope of this invention were carried out with mice to determine efficacy in altering the effects of alcohol administered to the test animals.

humans [4] = experiment: Toxicity in humans, repeated administration of capsules; conditions: up to 20 capsules per day (1 gram/capsule) for 10 days
mice [5] = experiment: Acute, subacute and chronic toxicity in mice, gastric catheter
[6] = system: effect of alcohol on a human brain; conditions: publication DOT HS-801 208 (1974); cited from earlier work
[7] = system: ethanol-induced neurological deficit; conditions: for Fall from rod in 10 sec. (individual mouse): 0.6 ml of 10% solution oral, 30 min before 0.5 ml 30% ethanol oral; for No. Protected/No. Treated: 0.6 ml/mouse of 10% solution oral, ethanol 0.5 ml/mouse; for effectiveness as inhibitors of ethanol-induced neurological deficit: at the dose used (0.6 ml/mouse of 10% solution)
Procedure: (§1) Neurological deficit was recorded if the animal was unable to remain on the rod for at least 10 seconds.
Each composition was prepared freshly as a 10% aqueous solution from the crystalline preparation. A dose of 0.6 ml/mouse was administered orally to 10 mice for each compound. […] A group of 10 untreated mice were used as controls.

rats [8] = conditions: rat, in vivo
humans [9] = conditions: in vivo
[10] = system: ethanol-induced neurological deficit; conditions: for Fraction Protected / Percent (protected): 0.6 ml/mouse
Procedure: They were deprived of food, but not water, for a period of five hours preceding the test. […] Ten minutes later the animals were tested for neurological deficit or its absence in the usual manner as described in Example 1. A separate group of fasted by non-pretreated mice served as ethanol controls.

[11] = system: ethanol-induced neurological deficit
Procedure: as §1

effects of alcohol [12] = experiment: Efficacy in altering the effects of alcohol in humans; conditions: compared with ammonium sulfate
mice [13] = conditions: mouse, in vivo
[14] = system: manifestations of the effects of alcohol; conditions: 1 or 2 capsules of 1 gram after 1 or 2 alcoholic drinks; in some cases
Excerpt: Throughout the specification and claims reference to an alcoholic drink means reference to an aqueous mixture of ethanol containing about 15-25 grams of ethanol per drink.

neurological deficit [15] = system: neurological deficit
Procedure: Ten minutes later the animals were placed, individually, on a rotored, rotating at 6 rpm. […] Absence of neurological deficit was similarly recorded (+) if the animal had sufficient coordination and muscular power to remain on the rotating rod for 10 seconds or more.

neurological deficit [16] = conditions: i.p., fasted mice; 0.12-0.19 at 95% confidence limit
Procedure: Further, and in order to avoid physio-chemical problems that might, albeit remotely, arise if ethanol is administered orally, applicant also determined the intraperitoneal ED50 of ethanol in fasted mice.

[17] = ethanol 0.50 ml per mouse, ammonium thiosulfate pretreated
[18] = ethanol 0.63 ml per mouse, ammonium thiosulfate pretreated
[19] = ethanol 0.75 ml per mouse, ammonium thiosulfate pretreated
[20] = ethanol 0.87 ml per mouse, ammonium thiosulfate pretreated
[21] = ethanol 1.00 ml per mouse, ammonium thiosulfate pretreated
[22] = ethanol 0.05 ml per mouse, non-pretreated
[23] = ethanol 0.10 ml per mouse, non-pretreated
[24] = ethanol 0.15 ml per mouse, non-pretreated
[25] = ethanol 0.20 ml per mouse, non-pretreated
[26] = ethanol 0.30 ml per mouse, non-pretreated
[27] = ethanol 0.50 ml per mouse, non-pretreated

For `N.NS(=O)(=O)O` [Ammonium sulfamate, ammonium sulfamate], the “pH of 5 Weight Percent Solution” value [1] was 5.335.

For `CC(=O)O` [Ammonium acetate, ammonium acetate], the “acute, subacute and chronic toxicity” value (rats [2]) was “low toxicity”, the “efficacy in altering the effects of alcohol in mice” value (effects of alcohol [3]; mice) was “Good results” and the “clinical or analytic noxious effects” value (humans [4]) was “no clinical or analytic noxious effects”. For the same compound, the “pH of 5 Weight Percent Solution” value [1] was 6.790 and the “acute, subacute and chronic toxicity” value (mice [5]) was “low toxicity”.

In the case of `Cl.N` [Ammonium chloride, ammonium chloride, reference compound], the amethystic effect [6] is listed as “does not appear to act as an amethystic agent” and the “pH of 5 Weight Percent Solution” value [1] is listed as 4.761.

With ammonium sulfate the “Fall from rod in 10 sec. (individual mouse)” value (“Fall from rod” below) [7] was “- and +”, the “No. Protected/No. Treated” value [7] was 7/10 and the “effectiveness as inhibitors of ethanol-induced neurological deficit” value [7] was “highly effective”. For the same compound, the “comparative effect on mice of ammonium thiosulfate and ammonium sulfate” value (effects of alcohol [3]) was “approximately equally effective”, the “clinical or analytic noxious effects” value (humans [4]) was “no clinical or analytic noxious effects” and the “pH of 5 Weight Percent Solution” value [1] was 5.263.

In the case of `N.N.O=S(O)(O)=S` [Ammonium thiosulfate, ammonium thiosulfate], the “acute, subacute and chronic toxicity” value (rats [8]) is reported as “low toxicity”, the “clinical or analytic noxious effects” value (humans [9]) is reported as “no clinical or analytic noxious effects” and the “Fall from rod” value [7] is reported as “- and +”. For the same compound, the “No. Protected/No. Treated” value [7] was 8/10, the “effectiveness as inhibitors of ethanol-induced neurological deficit” value [7] was “highly effective” and the “relative potency of ammonium thiosulfate and ammonium sulfate” value ([7]; single test) was “essentially equipotent”. The “percent of pure ammonium thiosulfate required to protect 50% of the mice” value ([10]; 0.6 ml/mouse oral as basic dose) was 3.6 (2.63-4.93%), the “Fraction Protected” value ([10]; 1.25% ammonium thiosulfate) was 0/10 and the “Percent (protected)” value ([10]; 1.25% ammonium thiosulfate) was 0%. The “Fall from rod” value ([10]; 1.25% ammonium thiosulfate, 0.6 ml/mouse oral, 30% ethanol 0.5 ml/mouse) was “+”, the “Fraction Protected” value ([10]; 2.5% ammonium thiosulfate) was 3/10 and the “Percent (protected)” value ([10]; 2.5% ammonium thiosulfate) was 30%. For the same compound, the “Fraction Protected” value ([10]; 5.0% ammonium thiosulfate) was 7/10, the “Percent (protected)” value ([10]; 5.0% ammonium thiosulfate) was 70% and the “Fraction Protected” value ([10]; 7.5% ammonium thiosulfate) was 8/10. The “Percent (protected)” value ([10]; 7.5% ammonium thiosulfate) was 80%, the “Fraction Protected” value ([10]; 10.0% ammonium thiosulfate) was 8/10 and the “Percent (protected)” value ([10]; 10.0% ammonium thiosulfate) was 80%. The “comparative effect on mice of ammonium thiosulfate and ammonium sulfate” value (effects of alcohol [3]) was “approximately equally effective”, the “ED50 of 30% ethanol in pretreated mice” value ([11]; 30% (v/v) ethanol oral, ammonium thiosulfate pretreated) was 0.76 ml/mouse and the “oral ED50 of ethanol in ammonium thiosulfate pretreated animals” value ([11]; 30% (v/v) ethanol, 95% limits 0.65-0.90 ml) was 0.76 mL. For the same compound, the “increase in ethanol required to induce neurological deficit following pretreatment” value ([11]; ammonium thiosulfate pretreated vs non-pretreated mice) was “nearly five times”, the “Fraction Falling From Rod in 10 sec.” value [11, 17] was 1/10 and the “Percent Falling” value [11, 17] was 10%. The “Fall from rod” value ([11]; ethanol 0.5 ml, 0.6 ml of 10% ammonium thiosulfate solution oral, 30 min before) was “- and +”, the “Fraction Falling From Rod in 10 sec.” value [11, 18] was 2/10 and the “Percent Falling” value [11, 18] was 20%. For the same compound, the “Fall from rod” value ([11]; ethanol 0.63 ml, 0.6 ml of 10% ammonium thiosulfate solution oral, 30 min before) was “- and +”, the “Fraction Falling From Rod in 10 sec.” value [11, 19] was 4/10 and the “Percent Falling” value [11, 19] was 40%. The “Fall from rod” value ([11]; ethanol 0.75 ml, 0.6 ml of 10% ammonium thiosulfate solution oral, 30 min before) was “+ and ° and -”, the “Fraction Falling From Rod in 10 sec.” value [11, 20] was 7/10 and the “Percent Falling” value [11, 20] was 70%. The “Fall from rod” value ([11]; ethanol 0.87 ml, 0.6 ml of 10% ammonium thiosulfate solution oral, 30 min before) was “+ and -”, the “Fraction Falling From Rod in 10 sec.” value [11, 21] was 10/10 and the “Percent Falling” value [11, 21] was 100%. The “Fall from rod” value ([11]; ethanol 1.00 ml, ammonium thiosulfate solution dose printed as 0.0 ml) was “+”, the “expected effect in altering the effects of alcohol ingestion in humans” value (effects of alcohol [12]) was “substantially greater” and the “pH of 5 Weight Percent Solution” value [1] was 5.966. The “acute, subacute and chronic toxicity” value (mice [13]) was “low toxicity” and the “additional drinks consumed without typical manifestations of the effects of alcohol” value [14] was “up to 8 additional drinks”.

With `CCO` [Ethanol, ethanol] the “ED50 (95% Limit)” value (neurological deficit [15]; 30% (v/v) ethanol oral, non-pretreated, 95% limit 0.13-0.22) was 0.17 mL, the “oral ED50 of 30% ethanol for neurological deficit, non-pretreated mice” value (neurological deficit [15]; 30% (v/v) ethanol, 95% fiducial limits 0.13 to 0.22 ml/mouse) was 0.17 ml/mouse and the “Fall from rod” value (neurological deficit [15]; ethanol 0.05 ml oral, non-pretreated) was “-”. The “Fraction Falling From Rod in 10 sec.” value (neurological deficit [15]; [22]) was 0/5, the “Percent Falling” value (neurological deficit [15]; [22]) was 0% and the “Fraction Falling From Rod in 10 sec.” value (neurological deficit [15]; [23]) was 2/10. The “Percent Falling” value (neurological deficit [15]; [23]) was 20%, the “Fraction Falling From Rod in 10 sec.” value (neurological deficit [15]; [24]) was 4/10 and the “Percent Falling” value (neurological deficit [15]; [24]) was 40%. For the same compound, the “Fraction Falling From Rod in 10 sec.” value (neurological deficit [15]; [25]) was 7/10, the “Percent Falling” value (neurological deficit [15]; [25]) was 70% and the “Fraction Falling From Rod in 10 sec.” value (neurological deficit [15]; [26]) was 4/5. For the same compound, the “Percent Falling” value (neurological deficit [15]; [26]) was 80%, the “Fall from rod” value (neurological deficit [15]; ethanol 0.5 ml oral, non-pretreated) was “+” and the “Fraction Falling From Rod in 10 sec.” value (neurological deficit [15]; [27]) was 10/10. For the same compound, the “Percent Falling” value (neurological deficit [15]; [27]) was 100% and the “intraperitoneal ED50 of 30% ethanol” value (neurological deficit [16]) was 0.15 ml/mouse.

For `N[C@@H](Cc1ccc(O)c(O)c1)C(=O)O` [L-dopa], the amethystic effect [6] is given as “most effective amethystic agent”.
